Assay results published in patent publication US8343539B2, “Compounds that bind α5β1 integrin and methods of use” (Regents of the University of Minnesota, priority 2006, dated 2013).
“Also recorded” adds a separate entry of the source. Where no end group is shown, it is not given here. (C16)2 = not defined here

How the values were obtained:
HUVECs [1] = assay: HUVEC adhesion on LB membranes of peptide-amphiphiles (Example 1); assay type: cell-based, human; details: no serum; for HUVEC adhesion compared to FN: seeded 497 cells/mm^2
Source text: Surface preparation: Peptide-amphiphiles, listed in Table 1, were synthesized as described in the literature (Berndt et al., J. Am. Chem. Soc., 1995; 117:9515-9522). Langmuir-Blodgett (LB) membranes constructed from peptide-amphiphiles were deposited onto 15 mm mica disks as described elsewhere (Kokkoli et al., Langmuir, 2004; 20:2397-2404). Shortly before cell assays, the LB films were transferred into 24-well plates containing 1× phosphate buffered saline (PBS) solution (Mediatech), without exposing surfaces to air, as they rearrange to form multilayers (Hansma et al., Method. Cell Biol., 2002; 69:163-193). After equilibrating for 5-10 minutes, PBS was exchanged with 1 ml of MCDB-131 basal media (Sigma) supplemented with 0.1% bovine serum albumin (BSA) (Sigma) and antibiotics (Sigma) (2.5 μg/ml gentamicin, 2.5 μg/ml amphotericin B, 50 U/ml penicillin, and 50 μg/ml streptomycin), referred to as 0.1% BSA media. Surfaces were equilibrated at 37° C., 5% CO2 for 30-60 minutes before adding the cells. Human fibronectin-coated round coverslips (FN) 22 mm in diameter (BD Biosciences) were put into 12-well plates and 2 ml of 0.1% BSA media was added to each well. Surfaces were equilibrated for 30-60 minutes at 37° C., 5% CO2.
Cell culture: Human umbilical vein endothelial cells, HUVECs, (Cambrex Corporation) were cultured in MCDB-131 containing 20% fetal bovine serum (FBS) (Atlas Biologicals) at 37° C., 5% CO2. Other nutrients and antibiotics supplementing the media were added based on an optimal HUVEC proliferation study (Terramani et al., In Vitro Cell Dev. Biol.—Animal, 2000; 36:125-132). Media was changed in the culture flasks every other day. Cells used for adhesion and imaging studies were in passages 3-4.
Cell adhesion experiments: After cells became 90% confluent they were washed with PBS, trypsinized with 0.25% Trypsin-EDTA (Cambrex Corporation), neutralized with MCDB-131 with 2% FBS, and spun at 1000 rpm for 10 minutes. The supernatant was removed and the cell pellet was resuspended in 0.1% BSA media. Cells were counted with a hemocytometer and seeded onto LB and FN surfaces at a density of 497 cells/mm^2. Surfaces were incubated with cells in 0.1% BSA media at 37° C., 5% CO2, for 1, 4, 12, 24, 48, and 72 hours. Cell adhesion was quantified using the CyQuant Cell Proliferation Assay Kit, with a dye that binds to cellular nucleic acids, following the manufacturer's protocol (Molecular Probes). A calibration standard curve was created for each experiment. The plates were read on a SpectraMAX GeminiXS (Molecular Devices).

HUVECs [2] = assay: HUVEC adhesion timed experiments on LB membranes (Example 2); assay type: cell-based, human
Description: Surface preparation: Each peptide-amphiphile was used to form homogenous LB membranes as in previous work (Kokkoli Langmuir 2004; 20:2397-2404), except that both the water and 15 mm mica disks used had been autoclaved for sterility. All depositions were done at a surface pressure between 41 and 47 mN/m, well below the collapse pressure and in the liquid-condensed or solid phase. Approximately 90 minutes before cells were seeded on the LB films to begin cell adhesion experiments, mica surfaces were transferred into 1× phosphate buffered saline (PBS), with particular care taken to ensure films were not exposed to air. After 5-10 minutes of equilibration, surfaces were transferred into 24-well plates containing a supplemented MCDB-131 basal media (Sigma), as described in Example 1. Following surface transfer, 24-well plates were moved to a 37° C., 5% CO2 incubator for 45-60 minutes. As a control, 22 mm diameter human fibronectin-coated coverslips (BD Biosciences), referred to as FN, were put into 12-well plates, covered with 2 ml of the supplemented media, and also incubated for 45-60 minutes.
Cell culture: Human umbilical vein endothelial cells, HUVECs (Cambrex Corporation), were cultured as described previously (see Example 1). Only cells from passage 3 were used in all studies.
Cell adhesion experiments: Flasks of HUVECs with at least 90% confluency were washed with 1×PBS, trypsinized with 0.25% Trypsin-EDTA (Fisher Scientific), and neutralized with 2% fetal bovine serum in MCDB-131 basal media. The suspended cells from all flasks were placed in one 50 ml centrifuge tube and centrifuged at 1000 rpm for 5 minutes. The media was removed and the cell pellet was resuspended in the supplemented media described above. A hemocytometer was used to count the cells and then 497 cells/mm^2 were seeded onto both LB and FN surfaces. Surfaces were incubated with cells at 37° C., 5% CO2 for 1, 4, or 12 hours. Cell adhesion following these times was determined using the CyQuant cell proliferation assay kit (Molecular Probes), which measures the fluorescence of a cellular nucleic acid-binding dye using the SpectraMAX GeminiXS plate reader (Molecular Devices). Standard calibration curves were created within each experiment for both 12- and 24-well plates.

CT26.WT cells = assay: Blocking of liposome binding with free PR_b peptide-amphiphile (flow cytometry); assay type: cell-based, mouse; details: free peptide-amphiphile 200 μg/ml, 1 hr pre-incubation, 4° C.
Description: Flow cytometry: CT26.WT confluent cell monolayers were trypsinized (0.25% Trypsin+0.1% EDTA) and resuspended in ice-cold FB (fluorescent buffer: phosphate buffered saline (PBS) supplemented with 0.02% sodium azide and 2.5% fetal bovine serum) containing liposomes at a lipid concentration of 250 μM and a cell concentration of 1 million/ml in 15 ml centrifuge tubes. Tubes were incubated at 4° C. or 37° C. over a rotary shaker for the specified duration of time. Cells were then pelleted and washed twice in FB. Flow cytometric analysis was carried out immediately. For peptide blocking experiments, the protocol specified above was used except cells were incubated with 200 μg/ml of free peptide-amphiphile in FB for one hour prior to incubating the cells with the liposomes. For integrin α5β1 expression studies, CT26.WT confluent cell monolayers were trypsinized (0.25% Trypsin+0.1% EDTA) and resuspended in ice-cold FB at a cell concentration of 1 million/ml in 15 ml centrifuge tubes. Tubes were incubated at 4° C. with primary antibody (anti-integrin α5β1) or goat isotype control (goat IgG) over a rotary shaker for 35 min. Cells were then pelleted and washed twice in FB and then incubated again with the secondary antibody (anti-goat IgG FITC conjugated) for 35 min. Finally, cells were pelleted and washed twice. Flow cytometric analysis was carried out immediately. […]

(C16)2-Glu-C2-KSSPHSRNSGSGSGSGSGRGDSP ({(C16)2-Glu-C2}-KSSPHSRNSGSGSGSGSGRGDSP; not fully specified; reading uncertain) [PR_b]
HUVEC adhesion compared to FN (HUVECs [1]; 1-24 hours): higher adhesion than FN | Ability of substrate to sustain HUVEC adhesion over time (HUVECs [1]; 1-72 hours): effectively adhered | HUVEC adhesion compared to the other peptide surfaces (HUVECs [1]; 1-72 hours): most promising sequence; also recorded: outperformed all other peptide substrates; also recorded: outperforms all other peptide surfaces | HUVEC adhesion compared to FN (HUVECs [1]; 48-72 hours): similar; also recorded: equivalent | HUVEC adhesion compared with FN, overall (HUVECs [2]; 1, 4 and 12 hours): outperform the positive control fibronectin at all times; also recorded: better than FN at all times; also recorded: statistically better than both Pr_f and the control FN | HUVEC adhesion compared with Pr_c (HUVECs [2]; 1, 4 and 12 hours): significantly better than Pr_c at all times except 1 hour | HUVEC adhesion compared with Pr_d (HUVECs [2]; 1, 4 and 12 hours): better than Pr_d at all times except 4 hours | HUVEC adhesion compared with Pr_f (HUVECs [2]; 1, 4 and 12 hours): statistically better than both Pr_f and the control FN; also recorded: much better | HUVEC adhesion level (description) (HUVECs [2]; 1, 4 and 12 hours): excellent adhesion at all times; also recorded: highest level of adhesion | HUVEC adhesion compared with Pr_e (HUVECs [2]; 1 and 4 hours): no statistical difference | HUVEC adhesion compared with Pr_e (HUVECs [2]; 12 hours): outperforms Pr_e; also recorded: better than Pr_e | Maintenance / decay of HUVEC adhesion over time (HUVECs [2]; up to 12 hours): most consistent adhesion over 12 hours; also recorded: smallest amount of decay over 12 hours; also recorded: least drop-off between 4 and 12 hours; also recorded: least amount of decay | Blocking of binding of PR_b and GRGDSP targeted stealth liposomes (low PEG2000) to CT26.WT cells (CT26.WT cells): completely blocks the binding; also recorded: completely blocked
